According to patent US8841513B2, “Procedure for producing transgenic plants providing high starch content and yield and high amylose/amylopectin balance” (priority 2008, dated 2014):
Read-outs that look alike come from different tables or passages of the source.

How the values were obtained:
[1] = molecular target: T1, GP of E. coli (Escherichia coli, UniProt P0AC86, E280D/L281V); test: Substrate specificity of GP of E. coli (products by HPLC with amperometric detection); type: biochemical
T1 construct: His tag (pET-15b) (N); made in house; host or cells: E. coli BL21 (DE3) C43 transformed with pET15b-glgP (CECT 7071)
T1 sequence (P0AC86 other isoform, or with tags, fused parts or gaps E280D/L281V): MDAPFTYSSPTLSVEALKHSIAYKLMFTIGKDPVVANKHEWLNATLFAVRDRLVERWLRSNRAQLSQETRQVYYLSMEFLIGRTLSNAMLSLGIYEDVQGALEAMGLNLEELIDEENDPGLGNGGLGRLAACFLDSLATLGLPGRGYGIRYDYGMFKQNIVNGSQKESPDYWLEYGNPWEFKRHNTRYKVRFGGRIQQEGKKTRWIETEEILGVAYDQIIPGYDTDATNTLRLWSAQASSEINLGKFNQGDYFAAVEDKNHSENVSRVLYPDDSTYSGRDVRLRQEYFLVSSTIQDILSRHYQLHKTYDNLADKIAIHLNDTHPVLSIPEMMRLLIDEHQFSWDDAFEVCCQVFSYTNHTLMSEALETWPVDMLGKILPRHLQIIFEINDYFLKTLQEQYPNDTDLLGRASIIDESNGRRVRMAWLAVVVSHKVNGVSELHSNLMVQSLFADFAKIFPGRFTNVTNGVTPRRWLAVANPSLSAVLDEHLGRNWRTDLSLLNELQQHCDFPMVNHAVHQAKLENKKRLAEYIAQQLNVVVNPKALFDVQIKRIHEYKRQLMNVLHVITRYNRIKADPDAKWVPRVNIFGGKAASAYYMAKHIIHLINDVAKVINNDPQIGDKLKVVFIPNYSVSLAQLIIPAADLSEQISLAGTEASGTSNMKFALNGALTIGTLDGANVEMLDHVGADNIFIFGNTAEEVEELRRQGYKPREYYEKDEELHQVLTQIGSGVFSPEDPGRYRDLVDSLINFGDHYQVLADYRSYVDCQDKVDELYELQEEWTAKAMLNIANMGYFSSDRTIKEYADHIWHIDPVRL
Experimental: The enzymatic reactions were carried out at 37° C. GP activities were measured in the sense of the analysed polyglucan degradation. […] The reaction was stopped after boiling for 2 minutes and centrifuging at 30,000 g for 20 minutes. The existing released G1P in the supernatant was determined by any of the following methods: • By spectrophotometry. 300 μL of mixture containing Hepes 50 mM pH 7, EDTA 1 mM, MgCl2 2 mM, KCl 15 mM, NAD^+ 0.6 mM, a unit of phosphoglucomutase and another of glucose-6-phosphate dehydrogenase of Leuconostoc mesenteroides, and 30 μL of supernatant resulting from step one were incubated for 20 minutes. The production of NADH was monitored at 340 nm using a Multiskan EX spectrophotometer (Labsystems). […] 40 μL of the supernatant from step 1 were subjected to high affinity liquid chromatography using a DX-500 Dionex system fitted to a Carbo-Pac PA10 column and amperometric detection.

[2] = molecular target: T1, GP of E. coli; type: biochemical
Experimental: The enzymatic reactions were carried out at 37° C. GP activities were measured in the sense of the analysed polyglucan degradation. In a first step, 50 μL of reaction mixture consisting of 50 mM HEPES (pH 7.5), 30 mM phosphate buffer (pH 7.5), polyglucan (equivalent to 10 mM glucose) and protein extract, were incubated for 15 minutes. The reaction was stopped after boiling for 2 minutes and centrifuging at 30,000 g for 20 minutes. The existing released G1P in the supernatant was determined by any of the following methods: • By spectrophotometry. 300 μL of mixture containing Hepes 50 mM pH 7, EDTA 1 mM, MgCl2 2 mM, KCl 15 mM, NAD^+ 0.6 mM, a unit of phosphoglucomutase and another of glucose-6-phosphate dehydrogenase of Leuconostoc mesenteroides, and 30 μL of supernatant resulting from step one were incubated for 20 minutes. The production of NADH was monitored at 340 nm using a Multiskan EX spectrophotometer (Labsystems). […] 40 μL of the supernatant from step 1 were subjected to high affinity liquid chromatography using a DX-500 Dionex system fitted to a Carbo-Pac PA10 column and amperometric detection.
The unit (U) is defined as the amount of enzyme that catalyzes the production of 1 μmol of product per minute.

[3] = glucan 5 mM glucose, 30 mM Pi, 3 U recombinant GP, 3 hours, 37° C.
[4] = effector 2 mM, GP activity, no effector = 100
[5] = effector 3 mM, GP activity, no effector = 100
[6] = cell without unit, glucan 5 mM glucose, 3 U recombinant GP, 3 hours, 37° C.

| Compound | Recognition as substrate by the GP of E. coli [1] | Products: G1P [1, 3] | Products: Maltose [1, 3] | Inhibition of the GP of E. coli [2] | Activity (U/mg protein) ([2]; effector 2 mM) | % control [2, 4] | Products: Maltotriose [1, 3] | also measured |
| --- | --- | --- | --- | --- | --- | --- | --- | --- |
| OC[C@H]1O[C@H](O[C@H]2[C@H](O)[C@@H](O)C(O)O[C@@H]2CO)[C@H](O)[C@@H](O)[C@@H]1O (mixture of isomers) [Maltose] | does not act on | b.d.l. | 5 mM | – | – | – | – | – |
| O=C(O)[C@H](O)COP(=O)(O)O [3-phosphoglycerate] | – | – | – | not to be inhibited | 8.9 U/mg protein | 111% | – | – |
| Nc1ncnc2c1ncn2[C@@H]1O[C@H](COP(=O)(O)OP(=O)(O)O[C@H]2O[C@H](CO)[C@@H](O)[C@H](O)[C@H]2O)[C@@H](O)[C@H]1O [ADPG, ADPglucose] | – | – | – | not to be inhibited | 8.3 U/mg protein | 104% | – | – |
| Nc1ncnc2c1ncn2[C@@H]1O[C@H](COP(=O)(O)OP(=O)(O)O)[C@@H](O)[C@H]1O [ADP] | – | – | – | not to be inhibited | 7.0 U/mg protein | 88% | – | – |
| Nc1ncnc2c1ncn2[C@@H]1O[C@H](COP(=O)(O)O)[C@@H](O)[C@H]1O [AMP] | – | – | – | not to be inhibited | – | – | – | Activity (U/mg protein) ([2]; effector 3 mM): 7.6 U/mg protein; % control [2, 5]: 95% |
| Nc1ncnc2c1ncn2[C@@H]1O[C@H](COP(=O)(O)OP(=O)(O)OP(=O)(O)O)[C@@H](O)[C@H]1O [ATP] | – | – | – | not to be inhibited | 4.8 U/mg protein | 60% | – | – |
| Nc1ncnc2c1ncn2[C@@H]1O[C@@H]2COP(=O)(O)O[C@H]2[C@H]1O [Cyclic AMP] | – | – | – | – | – | – | – | % control [2]: 91%; Activity (U/mg protein) [2]: 7.3 U/mg protein |
| O=C(COP(=O)(O)O)[C@@H](O)[C@H](O)[C@H](O)COP(=O)(O)O [Fructose-1,6-bisphosphate] | – | – | – | not to be inhibited | 9.0 U/mg protein | 113% | – | – |
| O=C(CO)[C@@H](O)[C@H](O)[C@H](O)COP(=O)(O)O [Fructose-6-phosphate] | – | – | – | not to be inhibited | 8.4 U/mg protein | 105% | – | – |
| O=C[C@H](O)[C@@H](O)[C@H](O)[C@H](O)COP(=O)(O)O [Glucose-6-phosphate] | – | – | – | not to be inhibited | 7.6 U/mg protein | 95% | – | – |
| OC[C@H]1O[C@H](O[C@H]2[C@H](O)[C@@H](O)[C@@H](O[C@H]3[C@H](O)[C@@H](O)[C@@H](O[C@H]4[C@H](O)[C@@H](O)[C@@H](O[C@H]5[C@H](O)[C@@H](O)[C@@H](O[C@H]6[C@H](O)[C@@H](O)[C@@H](O[C@H]7[C@H](O)[C@@H](O)C(O)O[C@@H]7CO)O[C@@H]6CO)O[C@@H]5CO)O[C@@H]4CO)O[C@@H]3CO)O[C@@H]2CO)[C@H](O)[C@@H](O)[C@@H]1O (some centres unmarked) [Maltoheptose] | recognizes | 2.1 mM | b.d.l. | – | – | – | b.d.l. | Products: Maltoheptose [1, 3]: 1.3 mM; Products: Maltohexose [1, 3]: 1 mM; Products: Maltopentaose [1, 3]: 0.4 mM; Products: Maltotetraose [1, 3]: 0.2 mM |
| OC[C@H]1O[C@H](O[C@H]2[C@H](O)[C@@H](O)[C@@H](O[C@H]3[C@H](O)[C@@H](O)[C@@H](O[C@H]4[C@H](O)[C@@H](O)[C@@H](O[C@H]5[C@H](O)[C@@H](O)[C@@H](O[C@H]6[C@H](O)[C@@H](O)C(O)O[C@@H]6CO)O[C@@H]5CO)O[C@@H]4CO)O[C@@H]3CO)O[C@@H]2CO)[C@H](O)[C@@H](O)[C@@H]1O (some centres unmarked) [Maltohexose] | recognizes | 1.7 mM | b.d.l. | – | – | – | b.d.l. | Products: Maltoheptose [1, 6]: 0.1; Products: Maltohexose [1, 3]: 2.1 mM; Products: Maltopentaose [1, 3]: 0.5 mM; Products: Maltotetraose [1, 3]: 0.6 mM |
| OC[C@H]1O[C@H](O[C@H]2[C@H](O)[C@@H](O)[C@@H](O[C@H]3[C@H](O)[C@@H](O)[C@@H](O[C@H]4[C@H](O)[C@@H](O)C(O)O[C@@H]4CO)O[C@@H]3CO)O[C@@H]2CO)[C@H](O)[C@@H](O)[C@@H]1O (some centres unmarked) [Maltotetraose] | does not act on | b.d.l. | b.d.l. | – | – | – | b.d.l. | Products: Maltotetraose [1, 3]: 5 mM |
| O=P(O)(O)OP(=O)(O)O [Pyrophosphate] | – | – | – | – | – | – | – | Activity (U/mg protein) ([2]; effector 3 mM): 7.8 U/mg protein; % control [2, 5]: 98% |
| Glycogen | recognizes | 0.5 mM | b.d.l. | – | – | – | b.d.l. | Products: Glycogen [1, 3]: 4.5 mM; Products: Maltoheptose [1, 3]: b.d.l.; Products: Maltohexose [1, 3]: b.d.l.; Products: Maltopentaose [1, 3]: b.d.l.; Products: Maltotetraose [1, 3]: b.d.l. |
| Maltopentaose | recognizes | 1.6 mM | b.d.l. | – | – | – | b.d.l. | Products: Maltohexose [1, 6]: 0.2; Products: Maltoheptose [1, 3]: b.d.l.; Products: Maltopentaose [1, 3]: 2.2 mM; Products: Maltotetraose [1, 3]: 1.0 mM |
| Maltotriose | does not act on | b.d.l. | b.d.l. | – | – | – | 5 mM | – |
| starch | recognizes | – | – | – | – | – | – | – |
